Test results as given in patent publication US9926369B2, “Methods for treating hepatocellular cancer by administering an anti-Ang-2 antibody” (Regeneron Pharmaceuticals, Inc., priority 2009, dated 2018).

What was measured:
[1] = system: COLO 205 (Human Colorectal Adenocarcinoma Cell Line) tumors; assay: COLO 205 mouse tumor model; assay type: in vivo, mice
Method: Briefly, 2×10^6COLO 205 cells in 100 μl of serum-free medium were injected subcutaneously into the flank of 6-8 week old male NCr nude mice (Taconic, Hudson, N.Y.). After tumor volumes reached an average of about 150 mm^3, mice were randomized into groups for treatment with antibody or Fc protein. Mice in each treatment group were administered an anti-Ang-2 antibody or Fc protein at a concentration of 4 mg/kg via intraperitoneal injection twice per week for approximately two weeks. Tumor volumes were measured twice per week over the course of the experiment and tumor weights were measured upon excision of tumors at the conclusion of the experiment. Averages (mean+/−standard deviation) of tumor weight and growth were calculated for each treatment group. “Avg. Tumor Growth” represents the average growth from the time of treatment initiation (when tumors were approximately 150 mm^3). Percent decrease of tumor weight and growth are calculated from comparison to Fc protein measurements.
A similar experiment was carried out to assess the effect of H1H685P, in particular, on COLO 205 tumor growth. Briefly, 2×10^6 COLO 205 cells in 100 μl of serum-free medium were implanted subcutaneously into the right hind flank of 9-11 week-old male SCID CB17 mice. When the tumors reached ˜125 mm^3, mice were randomized into 5 groups (n=7-8 mice/group) and treated twice per week with Fc protein (15 mg/kg), H1H685P (5 or 25 mg/kg) or Control II (5 or 25 mg/kg) for a period of 19 days. Tumor volumes were measured twice per week over the course of the experiment and tumor weights were measured upon excision of tumors at the end of the experiment. Averages of tumor weight and growth from the beginning of treatment were calculated for each group. Percent decrease of tumor weight and growth are calculated from comparison to the Fc control group.
To determine the effect of combining an anti-Ang-2 antibody with a VEGF inhibitor on the growth of COLO 205 xenografts, 2×10^6 cells were implanted subcutaneously into the right hind flank of 6-8 week-old female SCID mice. When the tumors reached an average volume of ˜350 mm^3, mice were randomized into 4 groups (n=6 mice/group) and treated with: human Fc protein (7.5 mg/kg), H1H685P (5 mg/kg), VEGF Trap (see U.S. Pat. No. 7,087,411) (2.5 mg/kg) or the combination of H1H685P+VEGF Trap. Mice were given a total of 3 doses over 10 days of treatment. Tumor volumes were measured twice per week over the course of the experiment. Averages of tumor growth from the start of treatment (mean+/−standard deviation) were calculated for each treatment group. Percent decrease of tumor growth was calculated from comparison to the Fc control group.
To test the effect of H1H685P in combination with a chemotherapeutic agent on tumor growth, 2.5×10^6 COLO 205 tumor cells were implanted subcutaneously into the right hind flank of 8-9 week-old male SCID mice. When the tumors reached an average volume of ˜150 mm^3 (day 17 after implantation), mice were randomized into 4 groups (n=5 mice/group) and treated as follows: the first group was treated sc with 15 mg/kg hFc and intraperitoneally (ip) with 5-FU vehicle; the second group was treated sc with 15 mg/kg of H1H685P; the third group was treated ip with 75 mg/kg of 5-FU; the fourth group was treated with the combination of 15 mg/kg H1H685P sc plus 75 mg/kg 5-FU ip. Mice received a total of three treatments, administered every 3-4 days. Tumor volumes were measured twice per week over the course of the experiment. Average (mean+/−standard deviation) tumor growth from the beginning of treatment until day 38 was calculated for each group. Percent decrease of tumor growth was calculated from comparison to the control group.

[2] = biological target: T1, hAng-2FD-mFc Y-475-H (Homo sapiens, UniProt O15123, Y475H); assay: Ang-2FD-mFc point mutant binding experiment (SPR), Y-475-H; conditions: Y-475-H mutant captured; antibody/peptibody at 100 nM; 25° C.
T1 construct: made in house
T1 sequence (O15123 with tags, fused parts or gaps Y475H): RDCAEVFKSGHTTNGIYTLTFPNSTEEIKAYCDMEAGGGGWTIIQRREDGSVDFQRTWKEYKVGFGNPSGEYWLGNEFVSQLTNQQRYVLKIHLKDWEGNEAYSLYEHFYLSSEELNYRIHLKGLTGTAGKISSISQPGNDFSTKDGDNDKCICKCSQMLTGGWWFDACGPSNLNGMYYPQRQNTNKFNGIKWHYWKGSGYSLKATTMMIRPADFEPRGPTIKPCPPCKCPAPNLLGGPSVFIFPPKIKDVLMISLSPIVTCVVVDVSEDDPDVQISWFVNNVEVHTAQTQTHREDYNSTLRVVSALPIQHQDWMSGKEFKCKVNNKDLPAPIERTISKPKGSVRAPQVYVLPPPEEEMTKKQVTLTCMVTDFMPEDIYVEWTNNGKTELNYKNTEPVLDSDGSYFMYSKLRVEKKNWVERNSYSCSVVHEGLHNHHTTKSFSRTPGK
Text: (§1) To further characterize binding between hAng2 and anti-hAng2 mAbs of the invention, seven variant hAng2-FD-mFc proteins were generated, each containing a single point mutation. Amino acids selected for mutation were based on the difference in sequence between hAng-2 and hAng-1 in the region that interacts with hTie-2 (FIG. 1). In particular, amino acids within the fibrinogen-like domain (FD) of Ang-2 which are believed to interact with Tie-2 based on crystal structure analysis, but which differ from the corresponding amino acid in Ang-1, were individually mutated to the corresponding hAng-1 residue. The results of this example indicate the amino acid residues of hAng-2 with which the Ang-2 preferential binding antibodies interact.
(§2) In this experiment, each of the seven hAng-2FD-mFc mutant proteins were captured (˜147-283 RU) on an anti-mouse-Fc surface created through direct chemical coupling to a BIACORE™ chip. Then each Ang-2 antibody (or peptibody, as the case may be) at 100 nM was injected over the captured mFc-tagged hAng-2FD protein surface at a flowrate of 50 μl/min for 180 sec, and the dissociation of variant hAng2-FD-mFc and antibody was monitored in real time for 20 min at 25° C.

[3] = biological target: T2, hAng-2FD-mFc K-432-N (Homo sapiens, UniProt O15123, K432N); assay: Ang-2FD-mFc point mutant binding experiment (SPR), K-432-N; conditions: K-432-N mutant captured; antibody/peptibody at 100 nM; 25° C.
T2 construct: made in house
T2 sequence (O15123 with tags, fused parts or gaps K432N): as the sequence (O15123 with tags, fused parts or gaps Y475H) above, with K151N, H194Y counted along it
Text: as §1, §2

[4] = biological target: Dimeric Monkey Ang-2FD; assay: Surface plasmon resonance binding to dimeric monkey Ang-2FD conjugated to human IgG1; parameters: species or system Macca fascicularis; conditions: SPR, room temperature
Sequence of Dimeric Monkey Ang-2FD (as listed by the source): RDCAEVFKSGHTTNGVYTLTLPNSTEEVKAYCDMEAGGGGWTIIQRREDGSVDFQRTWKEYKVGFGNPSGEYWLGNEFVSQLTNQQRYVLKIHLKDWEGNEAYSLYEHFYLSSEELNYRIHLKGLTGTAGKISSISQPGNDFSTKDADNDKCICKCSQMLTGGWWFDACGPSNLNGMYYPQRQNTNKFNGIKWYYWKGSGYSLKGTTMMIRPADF
Method: Equilibrium dissociation constants (KD values) for the binding of selected purified Ang-2 antibodies to dimeric fibrinogen-like domain of human (SEQ ID NO: 519), mouse (Mus musculus; SEQ ID NO: 520) and monkey (Macca fascicularis; SEQ ID NO: 521) Ang-2 (Ang-2FD) conjugated to human IgG1 (SEQ ID NO:528) were determined by surface kinetics using a real-time biosensor surface plasmon resonance assay. Antibody was captured on a goat anti-mouse IgG polyclonal antibody surface, a goat anti-human κ polyclonal antibody (Southern Biotech, Birmingham, Ala.) surface or a goat anti-human IgG polyclonal antibody (Jackson Immuno Research Lab, West Grove, Pa.) surface created through direct amine coupling to a BIACORE™ CM5 sensor chip to form a captured antibody surface. Varying concentrations (ranging from 50 nM to 6.25 nM) of protein were injected at 100 μl/min over captured antibody surface for 90 seconds. Antigen-antibody binding and dissociation were monitored in real time at room temperature. Kinetic analysis was performed to calculate KD and half-life of antigen/antibody complex dissociation.
The above experiment was repeated using selected purified anti-Ang-2 antibodies cloned onto human IgG1.

[5] = COLO 205, SCID CB17 mice, 5 mg/kg twice per week, 19 days
[6] = COLO 205, SCID CB17 mice, 25 mg/kg twice per week, 19 days
[7] = COLO 205, female SCID mice, H1H685P 5 mg/kg, VEGF Trap 2.5 mg/kg, 3 doses over 10 days
[8] = COLO 205, male SCID mice, H1H685P 15 mg/kg sc, 5-FU 75 mg/kg ip, three treatments, until day 38

**Q.** Which “% Decrease in Tumor Growth” value [1, 5] does the source give for “H1H685P: human anti-Ang-2 antibody, HCVR/LCVR SEQ ID NOs 18/20; also referred to as mAb1 [Antibody H1H685P]” here?
**A.** The value was 45%.

**Q.** And the “% Decrease in Tumor Weight” value [1, 5]?
**A.** The value was 43%.

**Q.** And the “Avg Tumor Growth” value [1, 5]?
**A.** Its value is 370 ± 114 mm^3.

**Q.** What about the “Avg Tumor Weight” value [1, 5] of the same substance?
**A.** Its value is 0.458 ± 0.125 g.

**Q.** And the “% Decrease in Tumor Growth” value [1, 6]?
**A.** The value was 56%.

**Q.** What about the “% Decrease in Tumor Weight” value [1, 6] of the same substance?
**A.** The value was 46%.

**Q.** And the “Avg Tumor Growth” value [1, 6]?
**A.** Its value is 295 ± 160 mm^3.

**Q.** And the “Avg Tumor Weight” value [1, 6]?
**A.** Its value is 0.430 ± 0.139 g.

**Q.** And the “% Decrease in Tumor Growth” value [1, 7]?
**A.** Its value is 80%.

**Q.** And the “Avg Tumor Growth” value [1, 7]?
**A.** Its value is 74 ± 77 mm^3.

**Q.** And the “% Decrease in Tumor Growth” value [1, 8]?
**A.** The value was 29%.

**Q.** What about the “Avg Tumor Growth” value [1, 8] of the same substance?
**A.** The value was 405 ± 80 mm^3.

**Q.** What about the “Anti-tumor activities in the COLO 205 mouse model (in words)” value ([1]; mouse, in vivo) of the same substance?
**A.** The value was “substantial anti-tumor activities”.

**Q.** And the Kd [2]?
**A.** The Kd was 0.196 nM.

**Q.** What about the RU [2] of the same substance?
**A.** The RU was 181.53 RU.

**Q.** And the Kd [3]?
**A.** The Kd was 0.014 nM.

**Q.** And the RU [3]?
**A.** The RU was 152.68 RU.

**Q.** What about the Kd [4] of the same substance?
**A.** The Kd was 0.0994 nM.
